From patent publication US20100098746A1, “COMPOSITIONS AND METHODS FOR TREATING PERIODONTAL DISEASE COMPRISING CLONIDINE, SULINDAC AND/OR FLUOCINOLONE” (Warsaw Orthopedic, Inc., priority 2008, published 2010)

Key:
[1] = tested on: inflammation induced in minipigs; details: high dose clonidine (150 μg), injected; days 1, 3 and 4 post-surgery
From the text: In a separate experiment, inflammation was induced in minipigs and the minipigs were given clonidine, bupivacaine, or morphine. The surgical site was reviewed for inflammation while the minipigs were anesthesized and on day 4. Scoring of inflammation was reviewed in the area of incision for redness with the following scores: 0—no redness; 1—slightly red limited to area of incision; 2—massive spread redness and swelling with the following scores 0—no swelling; 1—slightly swelling; 3—massive swelling. Redness and swelling were summed up so the minimum score is 0 and maximum score is 4. […] The low dose clonidine given was 75 μg.

[2] = tested on: thermal hyperalgesia, Bennett Model; details: subcutaneously at 0.02 mg/kg/day
Method: (§1) The efficacy of a five Month Clonidine/Polymer Drug Depot in the Rat Chronic Constriction Injury Model was evaluated. The animal model was the Bennett Model (Wistar rat). The purpose: To determine whether a five month polymer clonidine-eluting depot can improve pain associated behavioral responses in a rat model of neuropathic pain with an inflammatory component.
(§2) Experimental Design: Four loose chromic gut ligatures, 1 mm apart, were tied around the common sciatic nerve at mid-thigh. Each animal received treatment of test or control article—according to the dosing described in Table 5.
(§3) The present study was conducted for a period of 64 days and employed the following two tests: (1) the Hargreaves test; and (2) the von Frey test. The Hargreaves Tests of Thermal Hyperalgesia were conducted on days 7, 14, 21, 28, 35, 42, 49, 56 and 63. The von Frey monofilament test of mechanical allodynia (performed the day following Thermal testing) were conducted on days-8, 15, 22, 29, 36, 43, 50, 57 and 64.

[3] = tested on: mechanical allodynia, Bennett Model; details: subcutaneously at 0.02 mg/kg/day
Method: as §1, §2, §3

murine RAW NO+ cell line = details: for inhibitory effects on osteoclast differentiation and resorption: clonidine tested at 100, 10, 1, 0.1 μM, sulindac at 140, 70, 35, 17.5, 8.75 μM, RANK L 30 ng/ml; for lowest inhibitory concentration: osteoclast differentiation and resorption
Method: The purpose of this set of experiments was to narrow the number of periodontal candidates by determining the lowest dose of the drug that inhibits or blocks osteoclast differentiation and/or resorption.
Cell culture complete media was prepared by adding 10% FBS to high glucose DMEM. • 2. A nitric oxide-containing murine RAW NO+ cell line, f frozen in DMSO-containing medium under liquid nitrogen, was used for these assays. • 3. Cells were thawed in a 37° C. water bath and resuspended in complete media (see #1 above). • 4. The cells were plated in a 175 cm^2 polystyrene, white top, non-adherent culture flask at a density of 1×10^4 cells/cm^2 and allowed to settle overnight (Day-1, Table G). • 5. The media was changed approximately 24 hours after the initial plating (Day 0, Table G). • 6. After approximately two days of proliferation, the cells were harvested with a cell scraper, collected in a 50 mL conical tube and centrifuged at 1000 rpm to pellet the cells. • 7. The cell pellets were resuspended in 4 mL complete media, counted with a hemocytometer and plated at a density of 0.125×10^4 cells/0.25 ml/well in a 16 well osteologic assay slide (Day 1, Table G). • 8. The cells were allowed to adhere for 24 hours, the media was removed and fresh differentiation media was prepared that contained complete media+RANK L (30 ng/ml; Pepro Tech #315-11)+/−drug (Day 2, Table G). […] Step 8 was repeated on days 5 and 7 (Table G). • 10. On day 9 the plates were harvested by removing the media, rinsing with dH2O and treated with bleach for 7 minutes. • 11. The bleach was disposed of in the drug waste container and the wells and gaskets were removed from the slide. • 12. The plates were rinsed with H2O 5 times, dried and analyzed for matrix degradation as described below
The clonidine concentrations tested were 100 μM, 10 μM, 1 μM, 0.1 μM and the sulindac concentrations tested were 140 μM, 70 μM, 35 μM, 17.5 μM, and 8.75 μM.

[4] = tested on: neuropathic pain, CCI model; test: 2-month chronic constriction injury (CCI) model of neuropathic pain (fluocinolone), thermal paw withdrawal latency and mechanical threshold; format: in vivo
Method: A 2-month chronic constriction injury (CCI) model of neuropathic pain was used to evaluate different formulations of a corticosteroid, fluocinolone, encapsulated in bioerodable polymers compared to fluocinolone given subcutaneously (SC). Different formulations as provided in Table B below were evaluated for reducing pain-associated behaviors: Thermal paw withdrawal latency was evaluated at baseline 7, 14, 21, 28, 35, 42, 49, and 56 days post-operatively, while mechanical threshold was evaluated at 8, 15, 22, 29, 36, 43, 50, and 57 days post-operatively. […] The pain of periodontal disease is due to the inflammation. […] Mechanical allodynia was measured using von Frey monofilaments (Stoelting, Wood Dale, Ill.) with varying stiffness (2.0-15.0 g) on Days 1, 8, 15, 22, 29, 36, 43, 50 and 57 as described previously. […] The 50% paw withdrawal threshold response was determined by a sequential increasing and/or decreasing of the stimulus strength (the “up-down method” of Dixon). […] The 50% paw withdrawal threshold was calculated using the formula: 10 (Xf+kd)/10,000, where Xf is the final von Frey filament used (log units), k is a value that analyzes the response pattern (taken from the table published by Chaplan et al.), and d is the mean difference between stimuli (log units). The mean and standard error of the mean (SEM) were determined for each treatment group.

[5] = tested on: mechanical allodynia, Bennett Model; test: Rat chronic constriction injury model, von Frey test of mechanical allodynia (sulindac); format: in vivo, Wistar rat; details: intraperitoneally at 0.4 mg/kg/day
Method: (§4) The efficacy of a 5 Month Sulindac/Polymer Drug Depot in the Rat Chronic Constriction Injury Model was evaluated. The animal model was the Bennett Model (Wistar rat). The purpose: To determine whether a 5 month polymer sulindac-eluting depot can improve pain associated behavioral responses in a rat model of neuropathic pain.
(§5) Experimental Design: Four loose chromic gut ligatures, 1 mm apart, were tied around the common sciatic nerve at mid-thigh. Each animal received treatment of test or control article—according to the dosing described in Table 10.
(§6) To date, the present study was conducted for a period of 57 days and employed the following two tests: (1) the Hargreaves test on days 7, 14, 21, 28, 35, 42, 49, and 56; and (2) the von Frey test on days 8, 15, 22, 29, 36, 43, 50, and 57.

[6] = tested on: thermal hyperalgesia, Bennett Model; test: Rat chronic constriction injury model, Hargreaves test of thermal hyperalgesia (sulindac); format: in vivo, Wistar rat; details: intraperitoneally at 0.4 mg/kg/day
Method: as §4, §5, §6

Row | SMILES | inflammation score (redness + swelling, 0 to 4) [1] | pain behavioral response, thermal hyperalgesia, compared to unloaded polymer depots [2] | pain behavioral response (percentage of baseline), thermal hyperalgesia ([2]; unloaded polymer depots 45%) [%] | pain behavioral response, mechanical allodynia, compared to unloaded polymer depots [3] | osteoclast differentiation and bone resorption compared to RANK only treated control wells (murine RAW NO+ cell line; clonidine at 100 μM and 10 μM) | inhibitory effects on osteoclast differentiation and resorption (murine RAW NO+ cell line) | lowest inhibitory concentration (murine RAW NO+ cell line) [µM] | pain threshold [4] | pain behavioral response, mechanical allodynia, compared to unloaded polymer depots (85/15 PLGA Control) [5] | pain behavioral response, thermal hyperalgesia, compared to unloaded polymer depot (85/15 PLGA Control) [6]
1 | Clc1cccc(Cl)c1N=C1NCCN1 [clonidine, 2,6-dichloro-N-2-imidazolidinyldenebenzenamine] | very low | consistently reduced the behavioral response | 58 | reduced the behavioral response | significantly decreased | significant inhibitory effects | 10 |  |  | 
2 | CC1(C)O[C@@H]2C[C@H]3[C@@H]4C[C@H](F)C5=CC(=O)C=C[C@]5(C)[C@@]4(F)[C@@H](O)C[C@]3(C)[C@]2(C(=O)CO)O1 [fluocinolone, 6α-,9α-Difluoro-16 α-hydroxyprednisolone 16,17-acetonide] |  |  |  |  |  |  |  | reduced pain threshold |  | 
3 | CC1=C(CC(=O)O)c2cc(F)ccc2/C1=C\c1ccc([S+](C)[O-])cc1 (stereo not drawn) [sulindac] |  |  |  |  |  | significant inhibitory effects | 140.3 |  | reduced the behavioral response | consistently reduced the behavioral response
